Like-named read-outs stand apart in the source and are kept apart here.

One assay has as its target human ATX (Homo sapiens, UniProt Q13822). The assay can be described thus: Amplex Red activity assay (ATX inhibition, LPC hydrolysis). It counts as biochemical. On the procedure: (§1) In a similar approach to TOOS Activity Assay, this widely used method detects the ATX ability to hydrolyze LPC using a test that monitors choline release using Amplex Red fluorescent reagent (10 mM), choline oxidase (0.2 U/mL) and Radish Peroxidase (HRP - 2 U/mL). All reactions were conducted with 2 nM pure ATX and 50 µM LPC (16:0 or 18:0) at 37 °C. Inhibitors (3 mM) were dissolved in dimethyl sulfoxide (DMSO) at concentrations from 0.001 to 5 µmol/L. Fluorescence values were measured on a fluorescent plate reader (Tecan Infinite 200). IC50 values were determined using the values from two independent experiments, using the sigmoid dose-response curve (PrismH software) from the equation f = y0 + a / (1 + exp (- (x-x0) / b) given from SigmaPlot 11.0.
(§2) Subsequently, 50 µL of a buffer solution containing 200 µM LPC 16:0 (final concentration 50 µM) were added to the reaction mixture followed by incubation for another 30 minutes at 37 °C. Finally, 50 µL of working solution containing 200 µM Amplex Red reagent and choline oxidase (0.2 U/mL) […] HRP (2 U/mL), in 50 mM Tris-HCl at pH 8.0 and 5 mM CaCl2, was added to begin the reaction. The reaction was monitored at 37 °C, in a fluorescence plate reader (Tecan Infinite 200) using excitation at 530 nm and reading at 590 nm, every five minutes for 30 minutes at 37°C. The IC50 value was calculated from two independent experiments, using the sigmoid dose-response curve (PrismH software) from the equation f=y0+a/(1+exp(-(x-x0)/b) given from SigmaPlot 11.0.
as §2, with “was” for “were”
(§3) Subsequently, 50 µL of a buffer solution containing 200 µM LPC 16:0 (final concentration 50 µM) was added to the reaction mixture followed by incubation for another 30 minutes at 37 °C. […] The reaction was monitored at 37 °C, in a fluorescence plate reader (Tecan Infinite 200) using excitation at 530 nm and reading at 590 nm, every five minutes for 30 minutes at 37°C. The IC50 value was calculated from two independent experiments, using the sigmoid dose-response curve (PrismH software) from the equation f=y0+a/(1+exp(-(x-x0)/b) given from SigmaPlot 11.0.
as §3

The target of the next assay is mouse ATX (Mus musculus, UniProt Q9R1E6). The assay is described as above. In kind it is biochemical. The protocol: as §1, §2, §3
Setting [1] is: human ATX final concentration 1 nM, LPC 16:0 50 µM, 37 °C, two independent experiments, read-out: IC50 value for human ATX inhibition.
Setting [2] is: ATX final concentration 2 nM, LPC 16:0 50 µM, 37 °C, two independent experiments, read-out: IC50 value for the inhibition of mouse ATX.

By IC50 is commonly meant the point on the concentration scale where inhibition reaches its midpoint. `COC(C(=O)Nc1c2c(nn1-c1ccc(Br)cc1)CSC2)(c1ccccc1)C(F)(F)F` (centres unmarked) [A17]: on human ATX (setting [1]), the IC50 is 2 µM.
As for `O=C(Nc1c2c(nn1-c1ccc(Br)cc1)CSC2)c1cc(Cl)cc(Cl)c1` [A18], the IC50 at human ATX (values marked *: evaluation performed in human ATX (hATX) 1 nM, read-out: IC50 (µM) (in mATX 2 nM)) is 2.5 µM.
`O=C(Nc1c2c(nn1-c1cnccn1)CSC2)c1cccc2ccccc12` [A14]: the results for the concentration for half-maximal inhibition (IC50) on mouse ATX (setting [2]) and on human ATX (setting [1]) were 2.5 µM and 1.3 µM, respectively.
As to `O=C(O)c1ccc(-n2nc3c(c2NC(=O)c2cccc4ccccc24)CSC3)cc1` [A15], the IC50 at mouse ATX (mATX 2 nM (values without asterisk), read-out: IC50 (µM) (in mATX 2 nM)) turned out to be 59.3 µM.
On to `O=C(Nc1c2c(nn1-c1ccncc1)CSC2)c1cccc2ccccc12` [A16], for which the IC50 at human ATX (setting [1]) was 7.5 µM.
With `O=C(Nc1c2c(nn1-c1ccc(Br)cc1)CSC2)c1cccc2ccccc12` [A4], the results for the IC50 at mouse ATX (setting [2]) and on human ATX (setting [1]) were 12.7 µM and 3.5 µM, respectively.

(Values after patent EP4175633B1, “THIENO[3,4-C]PYRAZOL-3-YL […] AUTOTAXIN INHIBITORS” (Uni-Pharma Kleon Tsetis Pharmaceutical Laboratories S.A., priority 2020, dated 2022).)
